# Assay results: article PMC12583774 (Nature Communications, 2025)
# Tests used:
# [1] = tested on: SARS-CoV-2 nCoV-SH01 strain; set-up: species or system K18-hACE2 transgenic mice; settings: mouse, in vivo
# [2] = tested on: SARS-CoV-2 strain (Wuhan-Hu-1); assay: microbe, parasite or virus in culture; format: cell-based; settings: Severe acute respiratory syndrome coronavirus 2, A549-ACE2, 24 h
smiles,measurement,setting,value
CCC(CC)COC(=O)[C@H](C)N[P@](=O)(OC[C@H]1O[C@@](C#N)(c2ccc3c(N)ncnn23)[C@H](O)[C@@H]1O)Oc1ccccc1 [remdesivir],SARS-CoV-2 N protein antigen staining in lungs (IHC),[1],significantly reduced viral antigen staining
same,lung pathological features (H&E),[1],markedly alleviated
same,EC50,[2],60 nM
